How the values were obtained:
Experiment in all cases: Test C pre-/postemergence greenhouse herbicide test
Type in all cases: in vivo
[1] = test system: Russian thistle (Salsola kali); conditions: Preemergence
Method in brief: (§1)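 Plant response is scored on a 0–100 scale, where 100 means complete control, by visual comparison with controls 13 to 15 d after greenhouse treatment. Applications are made pre- and postemergence using a surfactant-containing, non-phytotoxic solvent formulation.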

[2] = test system: bermudagrass (Cynodon dactylon)
Method in brief: as §1

[3] = test system: bromegrass, downy (downy bromegrass, Bromus tectorum)
Method in brief: as §1

[4] = test system: cocklebur (common cocklebur, Xanthium strumarium)
Method in brief: as §1

[5] = test system: cupgrass, woolly (woolly cupgrass, Eriochloa villosa)
Method in brief: as §1

[6] = test system: foxtail, green (green foxtail, Setaria viridis)
Method in brief: as §1

[7] = test system: goosegrass (Eleusine indica)
Method in brief: as §1

[8] = test system: nightshade (eastern black nightshade, Solanum ptycanthum); conditions: Preemergence
Method in brief: as §1

[9] = test system: sunflower (common oilseed sunflower, Helianthus annuus); conditions: Preemergence
Method in brief: as §1

[10] = test system: surinam grass (Brachiaria decumbens)
Method in brief: as §1

## Cc1cc(=O)n(-c2ccc(F)cc2)nc1Oc1ccnc(C(F)(F)F)c1 [Compound 14, 2-(4-fluorophenyl)-5-methyl-6-[[2-(trifluoromethyl)-4-pyridinyl]oxy]-3 (2H)-pyridazinone]
[1]; 31 g ai/ha
  Plant response rating: 85
[1]; 62 g ai/ha
  Plant response rating: 90
[1]; 125 g ai/ha
  Plant response rating: 90
[1]; 250 g ai/ha
  Plant response rating: 90
[2]; Postemergence, 31 g ai/ha
  Plant response rating: 5
[2]; Postemergence, 62 g ai/ha
  Plant response rating: 10
[2]; Postemergence, 125 g ai/ha
  Plant response rating: 10
[2]; Postemergence, 250 g ai/ha
  Plant response rating: 15
[2]; Preemergence, 31 g ai/ha
  Plant response rating: 98
[2]; Preemergence, 62 g ai/ha
  Plant response rating: 98
[2]; Preemergence, 125 g ai/ha
  Plant response rating: 98
[2]; Preemergence, 250 g ai/ha
  Plant response rating: 98
[3]; Postemergence, 31 g ai/ha
  Plant response rating: 5
[3]; Postemergence, 62 g ai/ha
  Plant response rating: 5
[3]; Postemergence, 125 g ai/ha
  Plant response rating: 5
[3]; Postemergence, 250 g ai/ha
  Plant response rating: 30
[3]; Preemergence, 31 g ai/ha
  Plant response rating: 5
[3]; Preemergence, 62 g ai/ha
  Plant response rating: 5
[3]; Preemergence, 125 g ai/ha
  Plant response rating: 5
[3]; Preemergence, 250 g ai/ha
  Plant response rating: 30
[4]; Postemergence, 31 g ai/ha
  Plant response rating: 35
[4]; Postemergence, 62 g ai/ha
  Plant response rating: 40
[4]; Postemergence, 125 g ai/ha
  Plant response rating: 40
[4]; Postemergence, 250 g ai/ha
  Plant response rating: 85
[4]; Preemergence, 31 g ai/ha
  Plant response rating: 0
[5]; Postemergence, 31 g ai/ha
  Plant response rating: 5
[5]; Postemergence, 62 g ai/ha
  Plant response rating: 15
[5]; Postemergence, 125 g ai/ha
  Plant response rating: 15
[5]; Postemergence, 250 g ai/ha
  Plant response rating: 20
[5]; Preemergence, 31 g ai/ha
  Plant response rating: 65
[5]; Preemergence, 62 g ai/ha
  Plant response rating: 95
[5]; Preemergence, 125 g ai/ha
  Plant response rating: 98
[5]; Preemergence, 250 g ai/ha
  Plant response rating: 98
[6]; Postemergence, 31 g ai/ha
  Plant response rating: 10
[6]; Postemergence, 62 g ai/ha
  Plant response rating: 10
[6]; Postemergence, 125 g ai/ha
  Plant response rating: 40
[6]; Postemergence, 250 g ai/ha
  Plant response rating: 98
[6]; Preemergence, 31 g ai/ha
  Plant response rating: 95
[6]; Preemergence, 62 g ai/ha
  Plant response rating: 95
[6]; Preemergence, 125 g ai/ha
  Plant response rating: 95
[6]; Preemergence, 250 g ai/ha
  Plant response rating: 95
[7]; Postemergence, 31 g ai/ha
  Plant response rating: 5
[7]; Postemergence, 62 g ai/ha
  Plant response rating: 10
[7]; Postemergence, 125 g ai/ha
  Plant response rating: 15
[7]; Postemergence, 250 g ai/ha
  Plant response rating: 15
[7]; Preemergence, 31 g ai/ha
  Plant response rating: 45
[7]; Preemergence, 62 g ai/ha
  Plant response rating: 80
[7]; Preemergence, 125 g ai/ha
  Plant response rating: 100
[7]; Preemergence, 250 g ai/ha
  Plant response rating: 100
[8]; 31 g ai/ha
  Plant response rating: 98
[8]; 62 g ai/ha
  Plant response rating: 98
[8]; 125 g ai/ha
  Plant response rating: 98
[8]; 250 g ai/ha
  Plant response rating: 100
[9]; 62 g ai/ha
  Plant response rating: 5
[9]; 125 g ai/ha
  Plant response rating: 5
[9]; 250 g ai/ha
  Plant response rating: 10
[10]; Postemergence, 31 g ai/ha
  Plant response rating: 5
[10]; Postemergence, 62 g ai/ha
  Plant response rating: 10
[10]; Postemergence, 125 g ai/ha
  Plant response rating: 30
[10]; Postemergence, 250 g ai/ha
  Plant response rating: 45
[10]; Preemergence, 62 g ai/ha
  Plant response rating: 20
[10]; Preemergence, 125 g ai/ha
  Plant response rating: 75
[10]; Preemergence, 250 g ai/ha
  Plant response rating: 75
